The source of these data is patent US10138260B2, “Compounds of phosphinanes and azaphosphinanes, a process for their preparation and pharmaceutical compositions containing them” (LES LABORATOIRES SERVIER, priority 2016, dated 2018).

The assay deals with T1, TAFIa (Homo sapiens, UniProt Q96IY4).
T1 sequence (Q96IY4 115-423): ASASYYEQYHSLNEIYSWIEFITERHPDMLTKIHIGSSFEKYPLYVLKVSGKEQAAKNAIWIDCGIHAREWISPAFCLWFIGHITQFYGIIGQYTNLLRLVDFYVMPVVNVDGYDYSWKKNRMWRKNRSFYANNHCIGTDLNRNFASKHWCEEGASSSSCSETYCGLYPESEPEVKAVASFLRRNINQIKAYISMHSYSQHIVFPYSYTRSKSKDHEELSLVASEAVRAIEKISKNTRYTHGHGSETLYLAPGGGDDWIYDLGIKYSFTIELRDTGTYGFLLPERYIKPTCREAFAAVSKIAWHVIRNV
The assay is described as follows: Inhibition of TAFIa (hippuryl-Arg test). It counts as biochemical. The note with it: TAFIa 2 nM, hippuryl-arginine 5 mM, 45 minutes, relative to control containing the carrier; for inhibition at 0.01 µM: compound at 10 nM; for inhibition at 0.02 µM: compound at 20 nM. How it is done: Human TAFI (4 nM) is incubated with human thrombin (10 nM) and human thrombomodulin (5 nM) in the presence of calcium (10 mM). After incubation for 20 minutes, the activation reaction is stopped by addition of PPACK (1 μM final), an irreversible thrombin inhibitor.
The reactions take place in Hepes buffer (25 mM Hepes, 137 mM NaCl, 3.5 mM KCl)+0.1% bovine albumin, pH 7.4 at 28° C. and with stirring.
The test compound is added to the solution of TAFIa (2 nM) and incubated for 45 minutes in the presence of hippuryl-arginine (5 mM). The reaction is stopped by addition of hydrochloric acid (1M) neutralised subsequently with sodium hydroxide (1M), and then the mixture is buffered with disodium hydroxyphosphate (1M pH 7.4). […] The reaction mixture is stirred (vortex) and then centrifuged. The supernatant is transferred to a 96-well microplate, and the absorbance is measured using a spectrophotometer at 405 nm (Spectramax plus, Molecular Devices).
The OD value of a well containing the reagents without TAFI is subtracted from all the OD values measured. The percentage inhibition of TAFIa at a given concentration of the test compound is determined by means of the following formula: % inhibition=100−[(OD compound×100)/OD carrier]
The compounds are evaluated at 10 nM and 20 nM under the experimental conditions described above and the results are expressed as the percentage inhibition relative to a control containing the carrier in the absence of compound.

Counter-ions that a name gives are not always drawn.

As a reminder, the inhibition is the percentage by which the read-out fell short of the control. A high value points to a strong effect. Regarding `COc1cccc(-c2cc(F)ccc2CN2CCP(=O)(O)[C@](CCCCN)(C(=O)O)C2)c1` [Example 185, (3S)-3-(4-AMINOBUTYL)-1-[[4-FLUORO-2-(3-METHOXYPHENYL)PHENYL]-METHYL]-4-HYDROXY-4-OXO-1,4-AZAPHOSPHINANE-3-CARBOXYLIC ACID], the inhibition at 0.01 µM is 69% and the inhibition at 0.02 µM stood at 85%.
The matching figures for `Cc1ccc(-c2ccccc2CN2CCP(=O)(O)[C@](CCCCN)(C(=O)O)C2)cc1` [Example 188, (3S)-3-(4-AMINOBUTYL)-4-HYDROXY-1-[[2-(4-METHYLPHENYL)PHENYL]-METHYL]-4-OXO-1,4-AZAPHOSPHINANE-3-CARBOXYLIC ACID]: 64% and 86%.
`NCCCC[C@@]1(C(=O)O)CN(Cc2ccccc2-c2cncnc2)CCP1(=O)O` [Example 182, (3S)-3-(4-AMINOBUTYL)-4-HYDROXY-4-OXO-1-[(2-PYRIMIDIN-5-YLPHENYL)-METHYL]-1,4-AZAPHOSPHINANE-3-CARBOXYLIC ACID] returned an inhibition at 0.01 µM of 81% and an inhibition at 0.02 µM of 95%.
Take `COc1cccc(-c2ccccc2CN2CCP(=O)(O)[C@](CCCCN)(C(=O)O)C2)c1OC` [Example 207, (3S)-3-(4-AMINOBUTYL)-1-[[2-(2,3-DIMETHOXYPHENYL)PHENYL]METHYL]-4-HYDROXY-4-OXO-1,4-AZAPHOSPHINANE-3-CARBOXYLIC ACID]: the inhibition at 0.01 µM was found to be 71% and at 0.02 µM the inhibition was 85%.
The matching figures for `NCCCC[C@@]1(C(=O)O)CN(Cc2ccc(F)cc2-c2ccc3ccccc3c2)CCP1(=O)O` [Example 215, (3S)-3-(4-AMINOBUTYL)-1-[(4-FLUORO-2-NAPHTHALEN-2-YLPHENYL)METHYL]-4-HYDROXY-4-OXO-1,4-AZAPHOSPHINANE-3-CARBOXYLIC ACID]: 82% and 91%.
`NCCCC[C@@]1(C(=O)O)CN(Cc2ccccc2-c2cccs2)CCP1(=O)O` [Example 183, (3S)-3-(4-AMINOBUTYL)-4-HYDROXY-4-OXO-1-[(2-THIOPHEN-2-YLPHENYL)-METHYL]-1,4-AZAPHOSPHINANE-3-CARBOXYLIC ACID] returned an inhibition at 0.01 µM of 73% and an inhibition at 0.02 µM of 88%.
The matching figures for `NCCCC[C@@]1(C(=O)O)CN(Cc2ccccc2-c2cnc3ccccn23)CCP1(=O)O` [Example 237, (3S)-3-(4-AMINOBUTYL)-4-HYDROXY-1-[(2-IMIDAZO[1,2-A]PYRIDIN-3-YLPHENYL)METHYL]-4-OXO-1,4-AZAPHOSPHINANE-3-CARBOXYLIC ACID]: 77% and 84%.
The matching figures for `NCCCCC1(C(=O)O)CN(Cc2ccccc2-c2ccccc2-c2ccccc2)CCP1(=O)O` (stereo not shown) [Example 114, 3-(4-AMINOBUTYL)-4-HYDROXY-4-OXO-1-[[2-(2-PHENYLPHENYL)PHENYL]-METHYL]-1,4-AZAPHOSPHINANE-3-CARBOXYLIC ACID]: 42% and 51%.
For the molecule `NCCCCC1(C(=O)O)CN(Cc2ccccc2-c2cccc3ccccc23)CCP1(=O)O` (stereo not shown) [Example 109, 3-(4-AMINOBUTYL)-4-HYDROXY-1-[(2-NAPHTHALEN-1-YLPHENYL)METHYL]-4-OXO-1,4-AZAPHOSPHINANE-3-CARBOXYLIC ACID], at 0.01 µM the inhibition was 58% and at 0.02 µM the inhibition was 71%.
The matching figures for `NCCCC[C@@]1(C(=O)O)CN(Cc2ccc(F)cc2-c2cnc3ccccn23)CCP1(=O)O` [Example 220, (3S)-3-(4-AMINOBUTYL)-1-[(4-FLUORO-2-IMIDAZO[1,2-A]PYRIDIN-3-YLPHENYL)METHYL]-4-HYDROXY-4-OXO-1,4-AZAPHOSPHINANE-3-CARBOXYLIC ACID]: 83% and 97%.
The matching figures for `Cn1nccc1-c1cc(F)ccc1CN1CCP(=O)(O)[C@](CCCCN)(C(=O)O)C1` [Example 236, (3S)-3-(4-AMINOBUTYL)-1-[[4-FLUORO-2-(2-METHYLPYRAZOL-3-YL)PHENYL]-METHYL]-4-HYDROXY-4-OXO-1,4-AZAPHOSPHINANE-3-CARBOXYLIC ACID]: 81% and 91%.
Take `NCCCCC1(C(=O)O)CN(Cc2ccc(Cl)cc2-c2ccc(Cl)cc2)CCP1(=O)O` (stereo not shown) [Example 113, 3-(4-AMINOBUTYL)-1-[[4-CHLORO-2-(4-CHLOROPHENYL)PHENYL]METHYL]-4-HYDROXY-4-OXO-1,4-AZAPHOSPHINANE-3-CARBOXYLIC ACID]: the inhibition at 0.01 µM was 68% and at 0.02 µM the inhibition was 90%.
Molecule `NCCCC[C@@]1(C(=O)O)CN(Cc2ccc(F)cc2-c2ccc(F)c(O)c2)CCP1(=O)O` [Example 251, (3S)-3-(4-AMINOBUTYL)-1-[[4-FLUORO-2-(4-FLUORO-3-HYDROXYPHENYL)-PHENYL]METHYL]-4-HYDROXY-4-OXO-1,4-AZAPHOSPHINANE-3-CARBOXYLIC ACID] yielded an inhibition at 0.01 µM of 70% and an inhibition at 0.02 µM of 90%.
For `Cc1ccc(-c2cc(Cl)ccc2CN2CCP(=O)(O)[C@](CCCCN)(C(=O)O)C2)cc1` [Example 218, (3S)-3-(4-AMINOBUTYL)-1-[[4-CHLORO-2-(4-METHYLPHENYL)PHENYL]METHYL]-4-HYDROXY-4-OXO-1,4-AZAPHOSPHINANE-3-CARBOXYLIC ACID], the inhibition at 0.01 µM was found to be 67% and the inhibition at 0.02 µM was found to be 83%.
In the case of `Cn1cncc1-c1cc(O)ccc1CN1CCP(=O)(O)[C@](CCCCN)(C(=O)O)C1` [Example 246, (3S)-3-(4-Aminobutyl)-4-hydroxy-1-[[4-hydroxy-2-(3-methylimidazol-4-yl)phenyl]methyl]-4-oxo-1,4-azaphosphinane-3-carboxylic acid, hydrobromide], the inhibition at 0.01 µM was 72% and the inhibition at 0.02 µM was 86%.
As for `NCCCC[C@@]1(C(=O)O)CN(Cc2ccc(F)cc2-c2nccs2)CCP1(=O)O` [Example 245, (3S)-3-(4-AMINOBUTYL)-1-[[4-FLUORO-2-(1,3-THIAZOL-2-YL)PHENYL]METHYL]-4-HYDROXY-4-OXO-1,4-AZAPHOSPHINANE-3-CARBOXYLIC ACID], the inhibition at 0.01 µM came out at 38% and the inhibition at 0.02 µM stood at 52%.
`COc1cc(-c2ccccc2CN2CCP(=O)(O)[C@](CCCCN)(C(=O)O)C2)ccn1` [Example 203, (3S)-3-(4-AMINOBUTYL)-4-HYDROXY-1-[[2-(2-METHOXYPYRIDIN-4-YL)PHENYL]METHYL]-4-OXO-1,4-AZAPHOSPHINANE-3-CARBOXYLIC ACID] registered an inhibition at 0.01 µM of 75% and an inhibition at 0.02 µM of 89%.
Regarding `COc1ccc(-c2ccccc2CN2CCP(=O)(O)[C@](CCCCN)(C(=O)O)C2)cn1` [Example 196, (3S)-3-(4-AMINOBUTYL)-4-HYDROXY-1-[2-(6-METHOXYPYRIDIN-3-YL)BENZYL]-4-OXO-1,4-AZAPHOSPHINANE-3-CARBOXYLIC ACID], the inhibition at 0.01 µM stood at 77% and the inhibition at 0.02 µM came out at 91%.
As to `NCCCCC1(C(=O)O)CN(Cc2ccccc2-c2ccc(Cl)c(Cl)c2)CCP1(=O)O` (stereo not shown) [Example 175, 3-(4-AMINOBUTYL)-1-[[2-(3,4-DICHLOROPHENYL)PHENYL]METHYL]-4-HYDROXY-4-OXO-1,4-AZAPHOSPHINANE-3-CARBOXYLIC ACID], the inhibition at 0.01 µM amounted to 55% and at 0.02 µM the inhibition was 77%.
The matching figures for `NCCCC[C@@]1(C(=O)O)CN(Cc2ccccc2-c2ccc3ccccc3c2)CCP1(=O)O` [Example 209, (3S)-3-(4-AMINOBUTYL)-4-HYDROXY-1-[(2-NAPHTHALEN-2-YLPHENYL)-METHYL]-4-OXO-1,4-AZAPHOSPHINANE-3-CARBOXYLIC ACID]: 76% and 87%.
In turn, `NCCCC[C@@]1(C(=O)O)CN(Cc2ccccc2-c2cccnc2)CCP1(=O)O` [Example 184, (3S)-3-(4-AMINOBUTYL)-4-HYDROXY-4-OXO-1-[(2-PYRIDIN-3-YLPHENYL)-METHYL]-1,4-AZAPHOSPHINANE-3-CARBOXYLIC ACID] gave an inhibition at 0.01 µM of 67% and an inhibition at 0.02 µM of 95%.
The matching figures for `Cn1nccc1-c1cc(O)ccc1CN1CCP(=O)(O)[C@](CCCCN)(C(=O)O)C1` [Example 247, (3S)-3-(4-AMINOBUTYL)-4-HYDROXY-1-[[4-HYDROXY-2-(2-METHYLPYRAZOL-3-YL)PHENYL]METHYL]-4-OXO-1,4-AZAPHOSPHINANE-3-CARBOXYLIC ACID]: 85% and 89%.
As for `COc1ccc(-c2cc(F)ccc2CN2CCP(=O)(O)[C@](CCCCN)(C(=O)O)C2)cn1` [Example 239, (3S)-3-(4-AMINOBUTYL)-1-[[4-FLUORO-2-(6-METHOXYPYRIDIN-3-YL)PHENYL]-METHYL]-4-HYDROXY-4-OXO-1,4-AZAPHOSPHINANE-3-CARBOXYLIC ACID], the inhibition at 0.01 µM stood at 85% and 0.02 µM produced 96% inhibition.
